The molecules below were run against Keap1/Nrf2 (Homo sapiens, UniProt Q14145).
Chain of Keap1/Nrf2 (Q16236 whole entry): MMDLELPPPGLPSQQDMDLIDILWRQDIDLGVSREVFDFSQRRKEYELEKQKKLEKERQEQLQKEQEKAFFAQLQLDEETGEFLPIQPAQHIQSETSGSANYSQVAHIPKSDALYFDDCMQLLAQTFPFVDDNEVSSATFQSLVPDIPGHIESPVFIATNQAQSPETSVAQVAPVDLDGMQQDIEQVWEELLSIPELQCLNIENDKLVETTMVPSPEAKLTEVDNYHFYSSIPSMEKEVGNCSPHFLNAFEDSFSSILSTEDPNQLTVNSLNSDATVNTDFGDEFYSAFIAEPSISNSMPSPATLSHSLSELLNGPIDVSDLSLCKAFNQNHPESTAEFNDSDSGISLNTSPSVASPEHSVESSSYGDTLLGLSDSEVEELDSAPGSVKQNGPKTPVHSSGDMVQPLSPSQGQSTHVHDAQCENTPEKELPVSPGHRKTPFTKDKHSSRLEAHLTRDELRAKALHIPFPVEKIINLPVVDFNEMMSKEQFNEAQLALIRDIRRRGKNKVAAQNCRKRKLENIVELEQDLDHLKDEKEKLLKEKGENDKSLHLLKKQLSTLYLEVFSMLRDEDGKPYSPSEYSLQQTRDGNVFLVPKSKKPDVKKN
Chain of Keap1/Nrf2 (Q14145 whole entry): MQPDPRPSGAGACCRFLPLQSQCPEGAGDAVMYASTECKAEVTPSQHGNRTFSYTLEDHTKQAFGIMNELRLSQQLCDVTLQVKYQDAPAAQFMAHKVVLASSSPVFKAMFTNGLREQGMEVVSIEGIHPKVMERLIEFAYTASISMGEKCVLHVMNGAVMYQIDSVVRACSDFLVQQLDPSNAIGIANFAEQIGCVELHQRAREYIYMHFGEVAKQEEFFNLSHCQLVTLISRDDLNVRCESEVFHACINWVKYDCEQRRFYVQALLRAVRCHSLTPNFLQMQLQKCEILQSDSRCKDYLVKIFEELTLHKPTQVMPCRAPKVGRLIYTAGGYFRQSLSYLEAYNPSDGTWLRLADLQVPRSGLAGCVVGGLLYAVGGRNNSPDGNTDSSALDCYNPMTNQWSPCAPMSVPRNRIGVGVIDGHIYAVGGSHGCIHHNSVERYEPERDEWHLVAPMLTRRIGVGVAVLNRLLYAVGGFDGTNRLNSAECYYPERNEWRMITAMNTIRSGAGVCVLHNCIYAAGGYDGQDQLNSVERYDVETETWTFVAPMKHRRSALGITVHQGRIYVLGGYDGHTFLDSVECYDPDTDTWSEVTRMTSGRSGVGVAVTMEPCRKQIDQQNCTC
Description: Inhibition of Keap1 kelch domain (322 to 609 residues) (unknown origin)/Nrf2 (unknown origin) protein-protein interaction incubated for 30 mins by fluorescence polarization assay

Structure (SMILES) | IC50
C[C@@H](CC(=O)O)Nc1ccc(N(CC(=O)O)S(=O)(=O)c2ccc(C(F)(F)F)cc2)c2ccccc12 | 16.5 µM
CCOc1ccc(S(=O)(=O)Nc2ccc(N[C@@H](C)CC(=O)O)c3ccccc23)cc1 | 33.4 µM
Cc1ccc(S(=O)(=O)Nc2ccc(N[C@@H](C)CC(=O)O)c3ccccc23)cc1 | 44 µM
CCOc1ccc(S(=O)(=O)N(CC(=O)O)c2ccc(N[C@@H](C)CC(=O)O)c3ccccc23)cc1 | 8.82 µM
COc1ccc(S(=O)(=O)N(CC(=O)O)c2ccc(N[C@@H](CC(=O)O)c3ccccc3)c3ccccc23)cc1 | 13.9 µM
C[C@@H](CC(=O)O)Nc1ccc(NS(=O)(=O)c2ccc(C(F)(F)F)cc2)c2ccccc12 | 47.6 µM
COc1ccc(S(=O)(=O)Nc2ccc(N[C@@H](CC(=O)O)c3ccccc3)c3ccccc23)cc1 | > 50 µM
Cc1ccc(S(=O)(=O)N(CC(=O)O)c2ccc(N[C@@H](C)CC(=O)O)c3ccccc23)cc1 | 7.14 µM
C[C@@H](CC(=O)O)Nc1ccc(N(CC(=O)O)S(=O)(=O)c2ccc(C(C)(C)C)cc2)c2ccccc12 | 10.1 µM
Cc1cc(C)c(C)c(S(=O)(=O)Nc2ccc(N[C@@H](C)CC(=O)O)c3ccccc23)c1C | 6.64 µM
Cc1cc(C)c(C)c(S(=O)(=O)N(CC(=O)O)c2ccc(N[C@@H](C)CC(=O)O)c3ccccc23)c1C | 1.61 µM
COc1ccc(S(=O)(=O)N(CC(=O)O)c2ccc(N[C@@H](C)CC(=O)O)c3ccccc23)cc1 | 8.21 µM
Cc1cc(C)c(S(=O)(=O)Nc2ccc(N[C@@H](C)CC(=O)O)c3ccccc23)c(C)c1 | 2.28 µM
C[C@@H](CC(=O)O)Nc1ccc(NS(=O)(=O)c2ccc(Cl)cc2)c2ccccc12 | > 50 µM
C[C@@H](CC(=O)O)Nc1ccc(NS(=O)(=O)c2ccc(C(C)(C)C)cc2)c2ccccc12 | > 50 µM
C[C@@H](CC(=O)O)Nc1ccc(NS(=O)(=O)c2ccc(F)cc2)c2ccccc12 | > 50 µM
C[C@@H](CC(=O)O)Nc1ccc(N(CC(=O)O)S(=O)(=O)c2ccc(Cl)cc2)c2ccccc12 | 10.6 µM
COc1ccc(S(=O)(=O)Nc2ccc(N[C@@H](C)CC(=O)O)c3ccccc23)cc1 | > 50 µM
C[C@@H](CC(=O)O)Nc1ccc(N(CC(=O)O)S(=O)(=O)c2ccc(F)cc2)c2ccccc12 | 23.7 µM

From ChEMBL document CHEMBL6109073, “Discovery of β-amino acid substituted naphthalene sulfonamide derivatives as potent Kelch-like ECH-associated protein 1-nuclear factor erythroid 2-related factor 2 (Keap1-Nrf2) protein-protein interaction inhibitors for ulcerative colitis management” (Eur J Med Chem, 2025)
